Results: patent US9695155B2, “Herbicidal substituted pyrimidinyloxy benzene compounds” (E. I. DU PONT DE NEMOURS AND COMPANY, priority 2013, dated 2017)

What was measured:
ragweed [1] = experiment: Test C postemergence; type: in vivo, Ambrosia elatior
Method in brief: (§1)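 Whole-plant greenhouse test with surfactant-containing solvent formulation, applied preemergence to sown loam–sand pots or postemergence to 2–18 cm plants. Scored by eye 13 to 15 days on, 0–100 scale.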

ragweed [2] = experiment: Test A postemergence; type: in vivo, Ambrosia elatior
Method in brief: (§2)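 Scoring: eye-based comparison with untreated controls, 0 for no effect through 100 for complete control, at about day 10. Treatments: directed soil spray preemergence; foliar spray postemergence on 2–10 cm plants at the one- to two-leaf stage. Medium: loam soil with sand.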

waterhemp = experiment: Test C postemergence; type: in vivo, Amaranthus rudis
Method in brief: as §1

barnyardgrass [3] = experiment: Test C postemergence; type: in vivo, Echinochloa crus-galli; conditions: for Barnyardgrass plant response rating / Plant response rating, Barnyardgrass: scale 0 to 100 (0 no effect, 100 complete control)
Method in brief: as §1

galium = experiment: Test C postemergence; type: in vivo, Galium aparine; conditions: for Galium plant response rating / Plant response rating, Galium: scale 0 to 100 (0 no effect, 100 complete control)
Method in brief: as §1

kochia [4] = experiment: Test A postemergence; type: in vivo, Kochia scoparia
Method in brief: as §2

wild oat = experiment: Test C postemergence; type: in vivo, Avena fatua
Method in brief: as §1

wheat, winter [5] = experiment: Test C postemergence; type: in vivo, Triticum aestivum
Method in brief: as §1

soybean = experiment: Test C preemergence; type: in vivo, Glycine max; conditions: for Soybean plant response rating: preemergence; for Plant response rating, Soybean: Preemergence, scale 0 to 100, 0 no effect, 100 complete control
Method in brief: as §1

yellow nutsedge = experiment: Test C postemergence; type: in vivo, Cyperus esculentus
Method in brief: as §1

corn = experiment: Test A postemergence; type: in vivo, Zea mays
Method in brief: as §2

velvetleaf = experiment: Test C preemergence; type: in vivo, Abutilon theophrasti; conditions: for Velvetleaf plant response rating: preemergence; for Plant response rating, Velvetleaf: Preemergence, scale 0 to 100, 0 no effect, 100 complete control
Method in brief: as §1

Italian ryegrass = experiment: Test C preemergence; type: in vivo, Lolium multiflorum; conditions: for Ryegrass, Italian plant response rating: preemergence; for Plant response rating, Ryegrass, Italian: Preemergence, scale 0 to 100, 0 no effect, 100 complete control
Method in brief: as §1

kochia [6] = experiment: Test A preemergence; type: in vivo, Kochia scoparia; conditions: for Kochia plant response rating: 500 g ai/ha
Method in brief: as §2

wheat, winter [7] = experiment: Test C preemergence; type: in vivo, Triticum aestivum; conditions: for Wheat plant response rating: preemergence; for Plant response rating, Wheat: Preemergence, scale 0 to 100, 0 no effect, 100 complete control
Method in brief: as §1

barnyardgrass [8] = experiment: Test A postemergence; type: in vivo, Echinochloa crus-galli
Method in brief: as §2

morningglory = experiment: Test C preemergence; type: in vivo, Ipomoea coccinea; conditions: for Morningglory plant response rating: preemergence; for Plant response rating, Morningglory: Preemergence, scale 0 to 100, 0 no effect, 100 complete control
Method in brief: as §1

[9] = 16 g ai/ha, postemergence, 0 is no effect, 100 is complete control
[10] = 31 g ai/ha, postemergence, visual rating, scale 0 to 100 (0 no effect, 100 complete control), 13 to 15 days
[11] = 125 g ai/ha, postemergence, visual rating, scale 0 to 100 (0 no effect, 100 complete control)
[12] = Postemergence, 62 g ai/ha, scale 0 to 100 (0 no effect, 100 complete control), 13 to 15 days
[13] = 125 g ai/ha, 0 to 100 scale, 0 no effect, 100 complete control
[14] = 500 g ai/ha, 0 to 100 scale where 0 is no effect and 100 is complete control
[15] = 31 g ai/ha, postemergence, visual rating, 13 to 15 days
[16] = 125 g ai/ha, postemergence, visual rating
[17] = Postemergence, 62 g ai/ha, 13 to 15 days
[18] = 16 g ai/ha, scale 0 to 100 (0 no effect, 100 complete control)
[19] = 125 g ai/ha, scale 0 (no effect) to 100 (complete control)
[20] = Postemergence, 31 g ai/ha, scale 0 to 100 (0 no effect, 100 complete control), 13 to 15 days
[21] = Postemergence, 62 g ai/ha, scale 0 to 100 (0 no effect, 100 complete control)
[22] = 125 g ai/ha, 0 to 100 scale where 0 is no effect and 100 is complete control
[23] = 16 g ai/ha, postemergence, visual rating, 13 to 15 days
[24] = Postemergence, 31 g ai/ha, 13 to 15 days
[25] = 62 g ai/ha, scale 0 (no effect) to 100 (complete control)

N#Cc1cn(-c2c(C#N)cccc2Oc2ncc(Cl)cn2)nn1 [Compound 273]
Plant response rating (0 to 100), Ragweed (ragweed [1]; [9]): 30
Ragweed plant response rating (ragweed [1]; [10]): 55
Plant response rating, Ragweed (ragweed [1]; [11]): 80
Plant response rating, Ragweed (ragweed [1]; [12]): 55
Plant response rating, Ragweed (ragweed [2]; [13]): 40
Plant response rating, Ragweed (ragweed [2]; [14]): 90
Plant response rating (0 to 100), Waterhemp (waterhemp; [9]): 35
Waterhemp plant response rating (waterhemp; [10]): 40
Plant response rating, Waterhemp (waterhemp; [11]): 80
Plant response rating, Waterhemp (waterhemp; [12]): 65
Plant response rating (0 to 100), Barnyardgrass (barnyardgrass [3]; [9]): 5
Barnyardgrass plant response rating (barnyardgrass [3]; [15]): 5
Plant response rating, Barnyardgrass (barnyardgrass [3]; [16]): 10
Plant response rating, Barnyardgrass (barnyardgrass [3]; [17]): 5
Plant response rating (0 to 100), Galium (galium; [9]): 55
Galium plant response rating (galium; [15]): 60
Plant response rating, Galium (galium; [16]): 80
Plant response rating, Galium (galium; [17]): 60
Plant response rating, Kochia (kochia [4]; [13]): 70
Plant response rating, Kochia (kochia [4]; [14]): 100
Plant response rating (0 to 100), Oat, Wild (wild oat; [9]): 5
Oat, Wild plant response rating (wild oat; [10]): 5
Plant response rating, Oat, Wild (wild oat; [11]): 10
Plant response rating, Oat, Wild (wild oat; [12]): 5
Plant response rating (0 to 100), Wheat (wheat, winter [5]; [9]): 0
Wheat plant response rating (wheat, winter [5]; [10]): 0
Plant response rating, Wheat (wheat, winter [5]; [11]): 10
Plant response rating, Wheat (wheat, winter [5]; [12]): 0
Soybean plant response rating (soybean; [18]): 5
Soybean plant response rating (soybean; [19]): 65
Plant response rating, Soybean (soybean; 62 g ai/ha): 40
Plant response rating (0 to 100), Nutsedge, Yellow (yellow nutsedge; [9]): 10
Nutsedge, Yellow plant response rating (yellow nutsedge; [10]): 5
Plant response rating, Nutsedge, Yellow (yellow nutsedge; [11]): 25
Plant response rating, Nutsedge, Yellow (yellow nutsedge; [12]): 5
Plant response rating, Corn (corn; [13]): 40
Plant response rating, Corn (corn; [14]): 50
Velvetleaf plant response rating (velvetleaf; [18]): 10
Velvetleaf plant response rating (velvetleaf; [19]): 85
Plant response rating, Velvetleaf (velvetleaf; 62 g ai/ha): 85
Ryegrass, Italian plant response rating (Italian ryegrass; [18]): 0
Ryegrass, Italian plant response rating (Italian ryegrass; [19]): 60
Plant response rating, Ryegrass, Italian (Italian ryegrass; 62 g ai/ha): 0
Kochia plant response rating (0 to 100 scale) (kochia [6]; 125 g ai/ha): 100
Kochia plant response rating (kochia [6]; 0 to 100 scale where 0 is no effect and 100 is complete control): 100
Wheat plant response rating (wheat, winter [7]; [18]): 0
Wheat plant response rating (wheat, winter [7]; [19]): 5
Plant response rating, Wheat (wheat, winter [7]; 62 g ai/ha): 0
Plant response rating, Barnyardgrass (barnyardgrass [8]; [13]): 70
Plant response rating, Barnyardgrass (barnyardgrass [8]; [14]): 90
Morningglory plant response rating (morningglory; [18]): 5
Morningglory plant response rating (morningglory; [19]): 85
Plant response rating, Morningglory (morningglory; 62 g ai/ha): 55

Cc1cnc(Oc2cccc(C#N)c2-n2cc(C#N)cn2)nc1 [Compound 90]
Plant response rating (0 to 100), Ragweed (ragweed [1]; 125 g ai/ha, postemergence): 65
Plant response rating, Ragweed (ragweed [1]; [20]): 40
Plant response rating, Ragweed (ragweed [1]; [21]): 50
Plant response rating, Ragweed (ragweed [2]; [22]): 60
Plant response rating, Ragweed (ragweed [2]; [14]): 80
Plant response rating (0 to 100), Waterhemp (waterhemp; 125 g ai/ha, postemergence): 75
Plant response rating, Waterhemp (waterhemp; [20]): 35
Plant response rating, Waterhemp (waterhemp; [21]): 65
Barnyardgrass plant response rating (barnyardgrass [3]; [23]): 5
Plant response rating (0 to 100), Barnyardgrass (barnyardgrass [3]; 125 g ai/ha, postemergence): 10
Plant response rating, Barnyardgrass (barnyardgrass [3]; [24]): 5
Plant response rating, Barnyardgrass (barnyardgrass [3]; Postemergence, 62 g ai/ha): 5
Galium plant response rating (galium; [23]): 70
Plant response rating (0 to 100), Galium (galium; 125 g ai/ha, postemergence): 85
Plant response rating, Galium (galium; [24]): 55
Plant response rating, Galium (galium; Postemergence, 62 g ai/ha): 65
Plant response rating, Kochia (kochia [4]; [22]): 90
Plant response rating, Kochia (kochia [4]; [14]): 100
Plant response rating (0 to 100), Oat, Wild (wild oat; 125 g ai/ha, postemergence): 5
Plant response rating, Oat, Wild (wild oat; [20]): 0
Plant response rating, Oat, Wild (wild oat; [21]): 5
Plant response rating (0 to 100), Wheat (wheat, winter [5]; 125 g ai/ha, postemergence): 0
Plant response rating, Wheat (wheat, winter [5]; [20]): 0
Plant response rating, Wheat (wheat, winter [5]; [21]): 0
Soybean plant response rating (soybean; [18]): 25
Soybean plant response rating (soybean; [25]): 65
Soybean plant response rating (soybean; [19]): 95
Plant response rating, Soybean (soybean; 31 g ai/ha): 35
Plant response rating (0 to 100), Nutsedge, Yellow (yellow nutsedge; 125 g ai/ha, postemergence): 10
Plant response rating, Nutsedge, Yellow (yellow nutsedge; [20]): 5
Plant response rating, Nutsedge, Yellow (yellow nutsedge; [21]): 10
Plant response rating, Corn (corn; [22]): 0
Plant response rating, Corn (corn; [14]): 80
Velvetleaf plant response rating (velvetleaf; [18]): 35
Velvetleaf plant response rating (velvetleaf; [25]): 98
Velvetleaf plant response rating (velvetleaf; [19]): 100
Plant response rating, Velvetleaf (velvetleaf; 31 g ai/ha): 65
Ryegrass, Italian plant response rating (Italian ryegrass; [18]): 0
Ryegrass, Italian plant response rating (Italian ryegrass; [25]): 0
Ryegrass, Italian plant response rating (Italian ryegrass; [19]): 50
Plant response rating, Ryegrass, Italian (Italian ryegrass; 31 g ai/ha): 0
Plant response rating, Kochia (kochia [6]; [22]): 100
Kochia plant response rating (kochia [6]; 0 to 100 scale, 0 no effect, 100 complete control, approx. 10 days): 100
Wheat plant response rating (wheat, winter [7]; [18]): 0
Wheat plant response rating (wheat, winter [7]; [25]): 0
Wheat plant response rating (wheat, winter [7]; [19]): 0
Plant response rating, Wheat (wheat, winter [7]; 31 g ai/ha): 0
Plant response rating, Barnyardgrass (barnyardgrass [8]; [22]): 90
Plant response rating, Barnyardgrass (barnyardgrass [8]; [14]): 100
Morningglory plant response rating (morningglory; [18]): 0
Morningglory plant response rating (morningglory; [25]): 55
Morningglory plant response rating (morningglory; [19]): 100
Plant response rating, Morningglory (morningglory; 31 g ai/ha): 20
